US8691820B2, “CDK inhibitors” (Curis, Inc., priority 2008, dated 2014)

Biological target: T1, CDK2/cyclinA (Homo sapiens, UniProt P24941)
T1 construct: C-terminal 6His-tagged human full length cdk2 (MW=35 kDa); 6His (C); made in house; host or cells: Sf21 insect cells (baculovirus)
Experiment: CDK2 kinase assay (33P-ATP, Histone H1 substrate)
Assay type: biochemical
Conditions: 1 μM ATP, 5 μM Histon H1, 2 hours at room temperature
Excerpt: CDK2/cyclinA (Accession number for CDK2; EMBL M68520, for cyclin A; EMBL X51688): C-terminal 6His-tagged human full length cdk2 (MW=35 kDa), and N-terminal GST-tagged human full length cyclin A (MW=75 kDa) were expressed individually with baculovirus system in Sf21 insect cells. Recombinant cdk2 protein was purified with Ni2+/NTA agarose and then activated using CAK and repurified by Q Sepharose and Ni2+/NTA agarose. Recombinant cyclin A was purified using glutathione-agarose. They were then mixed in vitro to form protein complex. Recombinant protein complex was measured to be 67% in purity with SDS-PAGE and Coomassie blue staining. Specific activity of purified enzyme was measured to be 158 U/mg, where one unit of cdk2/cyclinA activity is defined as 1 nmol phosphate incorporated into 0.1 mg/ml histone H1 per minute at 30° C. with a final ATP concentration of […]. Enzyme was stored at a concentration of 0.1 mg/ml in 50 mM Tris/HCl pH7.5, 150 mM NaCl, 0.1 mM EGTA, 0.03% Brij-35, 270 mM sucrose, 1 mM benzamidine, 0.2 mM PMSF, 0.1% 2-mercaptoethanol. Frozen solution.
Histon H1 (Substrate for CDK2): Histone H1 (Sigma cat#H4524), was purified as a lysine rich fraction from calf thymus with 93% purity (MW=21.5 kDa). Purified protein was stored at a concentration of 20 mg/ml=930 μM in distilled water.
[…] (0.5 nmol) and 5 μM Histon H1 were mixed in the reaction buffer (20 mM HEPES (pH 7.5), 10 mM MgCl2, 1 mM EGTA, 0.02% Brij 35, 0.02 mg/ml BSA, 0.1 mM Na3VO4, 2 mM DTT) with final concentration of 1 μM ATP and 1% DMSO. The reaction was incubated for 2 hours at room temperature and conversion rate of ATP is about 4.5%. An equal volume of 25% TCA was added to stop the reaction and precipitate the labeled peptides. Precipitated proteins were trapped onto glass fiber B filterplates and excess […] p33 ATP was washed off. The plates were allowed to air-dry prior to the addition of 30 uL/well of Packard Microscint 20. The amount of incorporated isotope was measured using a Perkin Elmer TopCount plate reader. Different concentrations of compounds were added to reaction to assess the activity of compounds to inhibit […]. IC50 was calculated using Prism software with sigmoidal dose-response curve fitting.
The following TABLE B lists compounds representative of the invention and their activity in the CDK2 assay. In this assay, the following grading was used: I≧10 μM, 10 μM>II>1 μM, 1 μM>III>0.1 μM, and IV≦0.1 μM for IC50.

| Compound | IC50 [nM] |
| --- | --- |
| CONC(=O)CCCCCCC(=O)Nc1ncc(SCc2ncc(C(C)(C)C)o2)s1 [Compound 1, N^1-(5-((5-tert-butyloxazol-2-yl)methylthio)thiazol-2-yl)-N^8-methoxyoctanediamide] | ≤ 100 |
| CC(C)(C)c1cnc(CSc2cnc(NC(=O)CCCCCCC(=O)NOCc3ccccc3)s2)o1 [Compound 2, N^1-(benzyloxy)-N^8-(5-((5-tert-butyloxazol-2-yl)methylthio)thiazol-2-yl)octanediamide] | ≤ 100 |
| CC(C)(C)c1cnc(CSc2cnc(NC(=O)CCCCCCC(=O)NOC3CCCCO3)s2)o1 (stereo not shown) [Compound 3, N^1-(5-((5-tert-butyloxazol-2-yl)methylthio)thiazol-2-yl)-N^8-(tetrahydro-2H-pyran-2-yloxy)octanediamide] | ≤ 100 |
| CN(O)C(=O)CCCCCCC(=O)Nc1ncc(SCc2ncc(C(C)(C)C)o2)s1 [Compound 4, N^1-(5-((5-tert-butyloxazol-2-yl)methylthio)thiazol-2-yl)-N^8-hydroxy-N^8-methyloctanediamide] | ≤ 100 |
| CC(C)(C)c1cnc(CSc2cnc(NC(=O)CCCCCCC(=O)N(O)Cc3ccccc3)s2)o1 [Compound 6, N^1-benzyl-N^8-(5-((5-tert-butyloxazol-2-yl)methylthio)-thiazol-2-yl)-N^1-hydroxyoctanediamide] | ≤ 100 |
| CC(C)(C)c1cnc(CSc2cnc(NC(=O)CCCCCCC(=O)NOCCO)s2)o1 [Compound 7, N^1-(5-((5-tert-butyloxazol-2-yl)methylthio)thiazol-2-yl)-N^8-(2-hydroxyethoxy)octanediamide] | ≤ 100 |
| CC(C)(C)c1cnc(CSc2cnc(NC(=O)CCCCCCC(=O)Nc3ccc(CCO)cc3)s2)o1 [Compound 8, N^1-(5-((5-tert-butyloxazol-2-yl)methylthio)thiazol-2-yl)-N^8-(4-(2-hydroxyethyl)phenyl)octanediamide] | ≤ 100 |
| CC(C)(C)c1cnc(CSc2cnc(NC(=O)CCCCCCC(=O)Nc3ccccc3)s2)o1 [Compound 9, N^1-(5-((5-tert-butyloxazol-2-yl)methylthio)thiazol-2-yl)-N^8-phenyloctanediamide] | ≤ 100 |
| CC(C)(C)c1cnc(CSc2cnc(NC(=O)CCCCCCC(=O)Nc3ccc(O)cc3)s2)o1 [Compound 10, N^1-(5-((5-tert-butyloxazol-2-yl)methylthio)thiazol-2-yl)-N^8-(4-hydroxyphenyl)octanediamide] | ≤ 100 |
| CC(C)(C)c1cnc(CSc2cnc(NC(=O)C(=O)Nc3ccccc3)s2)o1 [Compound 11] | 100 to 1000 |
| CC(C)(C)c1cnc(CSc2cnc(NC(=O)CC(=O)Nc3ccccc3N)s2)o1 [Compound 13, N1-(2-aminophenyl)-N3-(5-((5-tert-butyloxazol-2-yl)methylthio)thiazol-2-yl)malonamide] | ≤ 100 |
| CC(C)(C)c1cnc(CSc2cnc(NC(=O)CCCC(=O)Nc3ccccc3N)s2)o1 [Compound 15, N1-(2-aminophenyl)-N5-(5-((5-tert-butyloxazol-2-yl)methylthio)thiazol-2-yl)glutaramide] | ≤ 100 |
| CC(C)(C)c1cnc(CSc2cnc(NC(=O)CCCCC(=O)Nc3ccccc3N)s2)o1 [Compound 16, N1-(2-aminophenyl)-N6-(5-((5-tert-butyloxazol-2-yl)methylthio)thiazol-2-yl)adipamide] | ≤ 100 |
| CC(C)(C)c1cnc(CSc2cnc(NC(=O)CCCCCC(=O)Nc3ccccc3N)s2)o1 [Compound 17, N1-(2-aminophenyl)-N7-(5-((5-tert-butyloxazol-2-yl)methylthio)thiazol-2-yl)heptanediamide] | ≤ 100 |
| CC(=O)Nc1ccccc1NC(=O)CCCCCCC(=O)Nc1ncc(SCc2ncc(C(C)(C)C)o2)s1 [Compound 19, N^1-(2-acetamidophenyl)-N^8-(5-((5-tert-butyloxazol-2-yl)methylthio)thiazol-2-yl)octanediamide] | ≤ 100 |
| CC(Sc1cnc(NC(=O)CCCCCCC(=O)Nc2ccccc2N)s1)c1ncc(C(C)(C)C)o1 (stereo not shown) [Compound 20, N^1-(2-aminophenyl)-N^8-(5-(1-(5-tert-butyloxazol-2-yl)ethylthio)thiazol-2-yl)octanediamide] | ≤ 100 |

| Compound | IC50 [nM] |
| --- | --- |
| CC(C)(C)c1cnc(CSc2cnc(NC(=O)CCCCCCC(=O)Nc3ccc(N)cc3)s2)o1 [Compound 21, N^1-(4-aminophenyl)-N^8-(5-((5-tert-butyloxazol-2-yl)methylthio)thiazol-2-yl)octanediamide] | ≤ 100 |
| CC(C)(C)c1cnc(CSc2cnc(NC(=O)CCCCCCC(=O)Nc3cccc(N)c3)s2)o1 [Compound 22, N^1-(3-aminophenyl)-N^8-(5-((5-tert-butyloxazol-2-yl)methylthio)thiazol-2-yl)octanediamide] | ≤ 100 |
| CC(C)(C)c1cnc(CSc2cnc(NC(=O)CCCCCCC(=O)Nc3ccc(F)cc3N)s2)o1 [Compound 23, N^1-(2-amino-4-fluorophenyl)-N^8-(5-((5-tert-butyloxa-zol-2-yl)methylthio)thiazol-2-yl)octanediamide] | ≤ 100 |
| Cc1ccc(NC(=O)CCCCCCC(=O)Nc2ncc(SCc3ncc(C(C)(C)C)o3)s2)c(N)c1 [Compound 26, N^1-(2-amino-4-methylphenyl)-N^8-(5-((5-tert-butyloxazol-2-yl)methylthio)thiazol-2-yl)octanediamide] | ≤ 100 |
| CC(C)(C)c1cnc(CSc2cnc(NC(=O)Nc3ccccc3N)s2)o1 [Compound 27, 1-(2-Aminophenyl)-3-(5-((5-tert-butyloxazol-2-yl)methyl-thio)thiazol-2-yl)urea] | ≤ 100 |
| CC(C)(C)c1cnc(CSc2cnc(NC(=O)CCCCCCC(=O)Nc3ccccn3)s2)o1 [Compound 28, N^1-(5-((5-tert-butyloxazol-2-yl)methylthio)thiazol-2-yl)-N^8-(pyridin-2-yl)octanediamide] | ≤ 100 |
| CC(C)(C)c1cnc(CSc2cnc(NC(=O)CCCCCCC(=O)Nc3cccnc3)s2)o1 [Compound 29, N^1-(5-((5-tert-butyloxazol-2-yl)methylthio)thiazol-2-yl)-N^8-(pyridin-3-yl)octanediamide] | ≤ 100 |
| CC(C)(C)c1cnc(CSc2cnc(NC(=O)CCCCCCC(=O)Nc3ccncc3)s2)o1 [Compound 30, N^1-(5-((5-tert-butyloxazol-2-yl)methylthio)thiazol-2-yl)-N^8-(pyridin-4-yl)octanediamide] | ≤ 100 |
| CONC(=O)CCCOc1ccc(CC(=O)Nc2ncc(SCc3ncc(C(C)(C)C)o3)s2)cc1 [Compound 31, 4-(4-(2-(5-((5-tert-butyloxazol-2-yl)methylthio)thiazol-2-ylamino)-2-oxoethyl)phenoxy)-N-methoxybutanamide] | ≤ 100 |
| CN(O)C(=O)CCCOc1ccc(CC(=O)Nc2ncc(SCc3ncc(C(C)(C)C)o3)s2)cc1 [Compound 32, 4-(4-(2-(5-((5-tert-butyloxazol-2-yl)methylthio)thiazol-2-ylamino)-2-oxoethyl)phenoxy)-N-hydroxy-N-methylbutanamide] | ≤ 100 |
| CC(C)(C)c1cnc(CSc2cnc(NC(=O)Cc3ccc(OCCC(=O)Nc4ccccc4N)cc3)s2)o1 [Compound 33] | ≤ 100 |
| CC(C)(C)c1cnc(CSc2cnc(NC(=O)Cc3ccc(OCCCC(=O)Nc4ccccc4N)cc3)s2)o1 [Compound 34, N-(2-aminophenyl)-4-(4-(2-(5-((5-tert-butyloxazol-2-yl)methylthio)thiazol-2-ylamino)-2-oxoethyl)phenoxy)butanamide] | ≤ 100 |
| CC(C)(C)c1cnc(CSc2cnc(NC(=O)Cc3ccc(OCCCCC(=O)Nc4ccccc4N)cc3)s2)o1 [Compound 35, N-(2-aminophenyl)-5-(4-(2-(5-((5-tert-butyloxazol-2-yl)methylthio)thiazol-2-ylamino)-2-oxoethyl)phenoxy)pentanamide] | ≤ 100 |
| CC(C)(C)c1cnc(CSc2cnc(NC(=O)Cc3ccc(OCCCCCC(=O)Nc4ccccc4N)cc3)s2)o1 [Compound 36, N-(2-aminophenyl)-6-(4-(2-(5-((5-tert-butyloxazol-2-yl)methylthio)thiazol-2-ylamino)-2-oxoethyl)phenoxy)hexanamide] | ≤ 100 |
| CONC(=O)/C=C/c1ccc(C(=O)Nc2ncc(SCc3ncc(C(C)(C)C)o3)s2)cc1 [Compound 38, (E)-N-(5-((5-tert-butyloxazol-2-yl)methylthio)thiazol-2-yl)-4-(3-(methoxyamino)-3-oxoprop-1-enyl)benzamide] | ≤ 100 |
